Measured values from ChEMBL document CHEMBL5303573, “Mapping human microbiome drug metabolism by gut bacteria and their genes” (Nature, 2019).

Columns and labels:
[1] = bifidobacterium adolescentis, 12 h, 2 µM
Description: The drug is tested on Bifidobacterium adolescentis strain: ATCC 15703 for biotransformation. The drug concentrations were measured before and after a 12-h incubation by liquid-chromatography-coupled mass spectrometry (LC–MS)

[2] = The drug is tested on Anaerotruncus colihominis strain: DSM17241 for biotransformation. The drug concentrations were measured before and after a 12-h incubation by liquid-chromatography-coupled mass spectrometry (LC–MS); conditions: 2 µM
[3] = bacteroides thetaiotaomicron, 12 h, 2 µM
Description: The drug is tested on Bacteroides thetaiotaomicron strain: 7330 for biotransformation. The drug concentrations were measured before and after a 12-h incubation by liquid-chromatography-coupled mass spectrometry (LC–MS)

[4] = bacteroides thetaiotaomicron, 12 h, 2 µM; remark: listed apart in the source
Description: The drug is tested on Bacteroides thetaiotaomicron strain: VPI-5482 for biotransformation. The drug concentrations were measured before and after a 12-h incubation by liquid-chromatography-coupled mass spectrometry (LC–MS)

[5] = The drug is tested on Ruminococcus gnavus strain: ATCC29149 for biotransformation. The drug concentrations were measured before and after a 12-h incubation by liquid-chromatography-coupled mass spectrometry (LC–MS); conditions: mediterraneibacter gnavus, 2 µM
[6] = The drug is tested on Bacteroides xylanisolvens strain: DSM18836 for biotransformation. The drug concentrations were measured before and after a 12-h incubation by liquid-chromatography-coupled mass spectrometry (LC–MS); conditions: 2 µM
[7] = The drug is tested on Ruminococcus torques strain: ATCC27756 for biotransformation. The drug concentrations were measured before and after a 12-h incubation by liquid-chromatography-coupled mass spectrometry (LC–MS); type: ADME; design: dose 2 uM, timepoint 0 vs 12 hours; conditions: 2 µM
[8] = bacteroides intestinalis, 12 h, 2 µM
Description: The drug is tested on Bacteroides intestinalis strain: DSM17393 for biotransformation. The drug concentrations were measured before and after a 12-h incubation by liquid-chromatography-coupled mass spectrometry (LC–MS)

[9] = roseburia intestinalis, 12 h, 2 µM
Description: The drug is tested on Roseburia intestinalis strain: L1-82 for biotransformation. The drug concentrations were measured before and after a 12-h incubation by liquid-chromatography-coupled mass spectrometry (LC–MS)

[10] = The drug is tested on Bacteroides coprophilus strain: DSM18228 for biotransformation. The drug concentrations were measured before and after a 12-h incubation by liquid-chromatography-coupled mass spectrometry (LC–MS); conditions: 2 µM
[11] = The drug is tested on Dorea formicigenerans strain: ATCC27755 for biotransformation. The drug concentrations were measured before and after a 12-h incubation by liquid-chromatography-coupled mass spectrometry (LC–MS); conditions: 2 µM
[12] = bacteroides thetaiotaomicron, 12 h, 2 µM; remark: listed apart in the source
Description: The drug is tested on Bacteroides thetaiotaomicron strain: 3731 for biotransformation. The drug concentrations were measured before and after a 12-h incubation by liquid-chromatography-coupled mass spectrometry (LC–MS)

[13] = The drug is tested on Bacteroides finegoldii strain: DSM17565 for biotransformation. The drug concentrations were measured before and after a 12-h incubation by liquid-chromatography-coupled mass spectrometry (LC–MS); conditions: 2 µM
[14] = anaerostipes sp., 12 h, 2 µM
Description: The drug is tested on Anaerostipes sp. strain: fecal isolate for biotransformation. The drug concentrations were measured before and after a 12-h incubation by liquid-chromatography-coupled mass spectrometry (LC–MS)

[15] = The drug is tested on Clostridium sp. strain: fecal isolate for biotransformation. The drug concentrations were measured before and after a 12-h incubation by liquid-chromatography-coupled mass spectrometry (LC–MS); conditions: 2 µM
[16] = bacteroides fragilis, 12 h, 2 µM
Description: The drug is tested on Bacteroides fragilis strain: 3397 (T10) for biotransformation. The drug concentrations were measured before and after a 12-h incubation by liquid-chromatography-coupled mass spectrometry (LC–MS)

[17] = The drug is tested on Bifidobacterium longum subsp. Infantis strain: CCUG52486 for biotransformation. The drug concentrations were measured before and after a 12-h incubation by liquid-chromatography-coupled mass spectrometry (LC–MS); conditions: 2 µM
[18] = The drug is tested on Alistipes indistinctus strain: DSM22520 for biotransformation. The drug concentrations were measured before and after a 12-h incubation by liquid-chromatography-coupled mass spectrometry (LC–MS); conditions: 2 µM
[19] = parabacteroides distasonis, 12 h, 2 µM
Description: The drug is tested on Parabacteroides distasonis strain: ATCC8503 for biotransformation. The drug concentrations were measured before and after a 12-h incubation by liquid-chromatography-coupled mass spectrometry (LC–MS)

SMILES	Bacterial Biotransformation [1]	Bacterial Biotransformation [2]	Bacterial Biotransformation [3]	Bacterial Biotransformation [4]	Bacterial Biotransformation [5]	Bacterial Biotransformation [6]	Bacterial Biotransformation [7]	Bacterial Biotransformation [8]	Bacterial Biotransformation [9]	Bacterial Biotransformation [10]	Bacterial Biotransformation [11]	Bacterial Biotransformation [12]	Bacterial Biotransformation [13]	Bacterial Biotransformation [14]	Bacterial Biotransformation [15]	Bacterial Biotransformation [16]	Bacterial Biotransformation [17]	Bacterial Biotransformation [18]	Bacterial Biotransformation [19]
CN1CCc2c(c3ccccc3n2Cc2ccccc2)C1.CN1CCc2c(c3ccccc3n2Cc2ccccc2)C1.O=S(=O)(O)c1cccc2c(S(=O)(=O)O)cccc12	Compound NOT metabolized	Compound NOT metabolized	Compound NOT metabolized	Compound NOT metabolized	Compound NOT metabolized	Compound NOT metabolized	Compound NOT metabolized	Compound NOT metabolized	Compound NOT metabolized	Compound NOT metabolized	Compound NOT metabolized	Compound NOT metabolized	Compound NOT metabolized	Compound NOT metabolized	Compound NOT metabolized	Compound NOT metabolized	Compound NOT metabolized		
CN1CCC(OC(c2ccccc2)c2ccccc2)CC1	Compound NOT metabolized	Compound NOT metabolized	Compound NOT metabolized	Compound NOT metabolized	Compound NOT metabolized		Compound NOT metabolized	Compound NOT metabolized	Compound NOT metabolized	Compound NOT metabolized	Compound NOT metabolized	Compound NOT metabolized	Compound NOT metabolized	Compound NOT metabolized		Compound NOT metabolized	Compound NOT metabolized	Compound NOT metabolized	
CN1[C@@H]2CC[C@H]1C[C@@H](OC(=O)C(CO)c1ccccc1)C2 (some centres undefined) [ATROPINE]	Compound NOT metabolized	Compound NOT metabolized	Compound NOT metabolized		Compound NOT metabolized	Compound NOT metabolized	Compound NOT metabolized	Compound NOT metabolized	Compound NOT metabolized	Compound NOT metabolized	Compound NOT metabolized		Compound NOT metabolized			Compound NOT metabolized	Compound NOT metabolized	Compound NOT metabolized	
O=C(Nc1ccccc1)OCC(CN1CCCCC1)OC(=O)Nc1ccccc1 (centres undefined) [DIPERODON]	Compound NOT metabolized	Compound NOT metabolized	Compound NOT metabolized	Compound NOT metabolized	Compound NOT metabolized	Compound NOT metabolized	Compound NOT metabolized	Compound NOT metabolized	Compound NOT metabolized	Compound NOT metabolized	Compound NOT metabolized	Compound NOT metabolized	Compound NOT metabolized	Compound NOT metabolized		Compound NOT metabolized	Compound NOT metabolized	Compound NOT metabolized	
CN(C)CCC=C1c2ccccc2COc2ccccc21 [DOXEPIN]	Compound NOT metabolized	Compound NOT metabolized	Compound NOT metabolized	Compound NOT metabolized	Compound NOT metabolized		Compound NOT metabolized	Compound NOT metabolized	Compound NOT metabolized	Compound NOT metabolized	Compound NOT metabolized	Compound NOT metabolized	Compound NOT metabolized	Compound NOT metabolized		Compound NOT metabolized	Compound NOT metabolized	Compound NOT metabolized	
CCOC(=O)[C@H](CCc1ccccc1)N[C@@H](C)C(=O)N1CCC[C@H]1C(=O)O.O=C(O)/C=C\C(=O)O [ENALAPRIL MALEATE]	Compound NOT metabolized	Compound NOT metabolized			Compound NOT metabolized	Compound metabolized	Compound NOT metabolized	Compound NOT metabolized	Compound NOT metabolized		Compound NOT metabolized	Compound NOT metabolized	Compound NOT metabolized	Compound NOT metabolized		Compound NOT metabolized	Compound NOT metabolized		Compound NOT metabolized
CN1CCN2c3ccccc3Cc3ccccc3C2C1 (centres undefined) [MIANSERIN]	Compound NOT metabolized	Compound NOT metabolized	Compound NOT metabolized		Compound NOT metabolized		Compound NOT metabolized	Compound NOT metabolized		Compound NOT metabolized	Compound NOT metabolized	Compound NOT metabolized	Compound NOT metabolized	Compound NOT metabolized		Compound NOT metabolized	Compound NOT metabolized		
COc1ccc2cc([C@H](C)C(=O)O)ccc2c1 [NAPROXEN]		Compound NOT metabolized	Compound NOT metabolized	Compound NOT metabolized	Compound NOT metabolized	Compound NOT metabolized	Compound NOT metabolized	Compound NOT metabolized	Compound NOT metabolized	Compound NOT metabolized	Compound NOT metabolized	Compound NOT metabolized		Compound NOT metabolized	Compound NOT metabolized	Compound NOT metabolized	Compound NOT metabolized		Compound NOT metabolized
Cc1cc2c(s1)Nc1ccccc1N=C2N1CCN(C)CC1 [OLANZAPINE]	Compound NOT metabolized	Compound NOT metabolized	Compound NOT metabolized		Compound NOT metabolized	Compound NOT metabolized	Compound NOT metabolized	Compound NOT metabolized	Compound NOT metabolized	Compound metabolized	Compound NOT metabolized	Compound NOT metabolized	Compound NOT metabolized	Compound NOT metabolized		Compound metabolized	Compound NOT metabolized	Compound NOT metabolized	Compound NOT metabolized
N#Cc1ccc2c(c1)N(CCCN1CCC(O)CC1)c1ccccc1S2 [PERICIAZINE]	Compound NOT metabolized	Compound NOT metabolized	Compound metabolized		Compound NOT metabolized		Compound NOT metabolized	Compound NOT metabolized			Compound NOT metabolized	Compound metabolized	Compound metabolized	Compound NOT metabolized		Compound metabolized	Compound NOT metabolized	Compound metabolized	Compound metabolized
